In PMC6315694, “Synthesis of Pseudellone Analogs and Characterization as Novel T-type Calcium Channel Blockers” (Marine Drugs, 2018):
Like-named read-outs stand apart in the source and are kept apart here.

Assays:
Assay type in all cases: cell-based
CaV3.3 = CaV3.3 (Homo sapiens, UniProt Q9P0X4); assay: T-type calcium channel window current FLIPR assay, CaV3.3
Protocol: (§1) The human embryonic kidney 293 (HEK 293) cell lines (from Emmanuel Bourinet, Montpellier, France) stably expressing CaV3.2 or CaV3.3 were cultured under 5% carbon dioxide at 37 °C in Dulbecco’s Modified Eagle Medium (DMEM) Glutamax (Gibco, Life Technologies, Carlsbad, CA, USA) supplemented with 10% (v/v) fetal bovine serum (FBS), 100 U/mL penicillin, 100 μg/mL streptomycin (Gibco, Life Technologies), and 750 μg/mL geneticin (G418) (Gibco, Life Technologies). The Chinese Hamster Ovary (CHO) cell lines (Emmanuel Bourinet, Montpellier, France) expressing CaV3.1 were cultured under 5% carbon dioxide at 37 °C in Alpha Minimum Essential Media (MEM) Glutamax (Gibco, Life Technologies), supplemented with 10% (v/v) fetal bovine serum (FBS) and 300 μg/mL geneticin (G418) (Gibco, Life Technologies). The human neuroblastoma SH-SY5 Y cells (Victor Diaz, Goettingen, Germany) were cultured under 5% carbon dioxide at 37 °C in RPMI 1640 antibiotic-free medium (Invitrogen, Carlsbad, CA, USA), supplemented with 15% FBS and 2 mM GlutaMAX™ (Invitrogen). D-PBS (Gibco, Life Technologies) was used to wash the cells, and 0.25% Trypsin-EDTA (Gibco, Life Technologies) was used to detach cells from the flask surface. They were split in a ratio of 1:5 (ideally 1000 cells/cm^2) when they reached 70%–80% confluence (every 2–3 days). Transiently transfected CaV3.1HEK293 T cells were used in FLIPR Assays. HEK 293 T cells were cultured under 5% carbon dioxide at 37 °C in DMEM supplemented with 10% (v/v) FBS. D-PBS was used to wash the cells, and 0.25% Trypsin-EDTA was used to detach cells from the flask surface. The cells were split and seeded at 6 million cells per T175 flask, to reach 70%–80% confluence after 24 h. The next day, 12 μg DNA of human CaV3.1 was incubated in 900 μL serum-free DMEM with 36 μL FuGENE HD transfection reagent (Promega Corporation, Madison, WI, US) (1:3 DNA/Fugene ratio) for 20 min, and then the mixture was added into the cell flask slowly, drop by drop. After the transfection, the cells were cultured under 5% carbon dioxide at 37 °C for 24 h and then moved to a 28 °C incubator.
(§2) HEK 293 cells stably expressing CaV3.2 or CaV3.3 were seeded into 384-well black wall clear bottom plates (Corning, Lowell, MA, USA) at a density of 30,000 cells per well. Transiently transfected CaV3.1HEK293 T cells were seeded into 384-well black wall clear bottom plates at a density of 60,000 cells per well. Once the cells reached 90%–95% confluence after 24 h, the media were removed from the wells and replaced with 20 μL of 10% calcium 4 dye (Molecular Devices, Sunnyvale, CA, USA) in HBSS-HEPES (containing 5 mM KCl, 10 mM HEPES, 140 mM NaCl, 10 mM glucose, and 0.5 mM CaCl2, pH 7.4) with 0.1% bovine serum albumin (BSA). The cells were incubated for 30 min at 37 °C in the presence of 5% carbon dioxide. Each well on the reagent plates for the first addition contained 15 μL different concentrations of compounds dissolved in HBSS-HEPES containing 0.1% BSA and <0.1% DMSO and was incubated for 20 min after loading. Positive and negative controls contained 15 μL of HBSS-HEPES (0.1% BSA) alone. The plates were placed in the FLIPR^TETRA (Molecular Devices, Sunnyvale, CA, USA) programmed to measure maximum fluorescence intensity following a second addition of the agonist 5 mM CaCl2. The data acquisition parameters were adjusted as follows: Baseline fluorescence of 1500–2000 arbitrary fluorescence units (AFU), emission wavelength of 515–575 nm, and excitation wavelength of 470–495 nm. HBSS-HEPES (0.1% BSA) was used in the second addition as a negative control. One fluorescence reading was taken before the second addition. Then the fluorescence readings were recorded every two seconds for 300 s. Raw fluorescence readings in the form of relative light units were converted to response over baseline using ScreenWorks® (Molecular Devices, version 3.2.0.14) software.
(§3) Data were plotted and analyzed using GraphPad Prism v7.0 (GraphPad Software Inc., San Diego, CA, USA).

[1] = molecular target: recombinant hCaV3.3 channels (Homo sapiens, UniProt Q9P0X4); assay: Whole-cell patch-clamp QPatch 16 X, CaV3.3
Sequence of recombinant hCaV3.3 channels (Q9P0X4 whole entry): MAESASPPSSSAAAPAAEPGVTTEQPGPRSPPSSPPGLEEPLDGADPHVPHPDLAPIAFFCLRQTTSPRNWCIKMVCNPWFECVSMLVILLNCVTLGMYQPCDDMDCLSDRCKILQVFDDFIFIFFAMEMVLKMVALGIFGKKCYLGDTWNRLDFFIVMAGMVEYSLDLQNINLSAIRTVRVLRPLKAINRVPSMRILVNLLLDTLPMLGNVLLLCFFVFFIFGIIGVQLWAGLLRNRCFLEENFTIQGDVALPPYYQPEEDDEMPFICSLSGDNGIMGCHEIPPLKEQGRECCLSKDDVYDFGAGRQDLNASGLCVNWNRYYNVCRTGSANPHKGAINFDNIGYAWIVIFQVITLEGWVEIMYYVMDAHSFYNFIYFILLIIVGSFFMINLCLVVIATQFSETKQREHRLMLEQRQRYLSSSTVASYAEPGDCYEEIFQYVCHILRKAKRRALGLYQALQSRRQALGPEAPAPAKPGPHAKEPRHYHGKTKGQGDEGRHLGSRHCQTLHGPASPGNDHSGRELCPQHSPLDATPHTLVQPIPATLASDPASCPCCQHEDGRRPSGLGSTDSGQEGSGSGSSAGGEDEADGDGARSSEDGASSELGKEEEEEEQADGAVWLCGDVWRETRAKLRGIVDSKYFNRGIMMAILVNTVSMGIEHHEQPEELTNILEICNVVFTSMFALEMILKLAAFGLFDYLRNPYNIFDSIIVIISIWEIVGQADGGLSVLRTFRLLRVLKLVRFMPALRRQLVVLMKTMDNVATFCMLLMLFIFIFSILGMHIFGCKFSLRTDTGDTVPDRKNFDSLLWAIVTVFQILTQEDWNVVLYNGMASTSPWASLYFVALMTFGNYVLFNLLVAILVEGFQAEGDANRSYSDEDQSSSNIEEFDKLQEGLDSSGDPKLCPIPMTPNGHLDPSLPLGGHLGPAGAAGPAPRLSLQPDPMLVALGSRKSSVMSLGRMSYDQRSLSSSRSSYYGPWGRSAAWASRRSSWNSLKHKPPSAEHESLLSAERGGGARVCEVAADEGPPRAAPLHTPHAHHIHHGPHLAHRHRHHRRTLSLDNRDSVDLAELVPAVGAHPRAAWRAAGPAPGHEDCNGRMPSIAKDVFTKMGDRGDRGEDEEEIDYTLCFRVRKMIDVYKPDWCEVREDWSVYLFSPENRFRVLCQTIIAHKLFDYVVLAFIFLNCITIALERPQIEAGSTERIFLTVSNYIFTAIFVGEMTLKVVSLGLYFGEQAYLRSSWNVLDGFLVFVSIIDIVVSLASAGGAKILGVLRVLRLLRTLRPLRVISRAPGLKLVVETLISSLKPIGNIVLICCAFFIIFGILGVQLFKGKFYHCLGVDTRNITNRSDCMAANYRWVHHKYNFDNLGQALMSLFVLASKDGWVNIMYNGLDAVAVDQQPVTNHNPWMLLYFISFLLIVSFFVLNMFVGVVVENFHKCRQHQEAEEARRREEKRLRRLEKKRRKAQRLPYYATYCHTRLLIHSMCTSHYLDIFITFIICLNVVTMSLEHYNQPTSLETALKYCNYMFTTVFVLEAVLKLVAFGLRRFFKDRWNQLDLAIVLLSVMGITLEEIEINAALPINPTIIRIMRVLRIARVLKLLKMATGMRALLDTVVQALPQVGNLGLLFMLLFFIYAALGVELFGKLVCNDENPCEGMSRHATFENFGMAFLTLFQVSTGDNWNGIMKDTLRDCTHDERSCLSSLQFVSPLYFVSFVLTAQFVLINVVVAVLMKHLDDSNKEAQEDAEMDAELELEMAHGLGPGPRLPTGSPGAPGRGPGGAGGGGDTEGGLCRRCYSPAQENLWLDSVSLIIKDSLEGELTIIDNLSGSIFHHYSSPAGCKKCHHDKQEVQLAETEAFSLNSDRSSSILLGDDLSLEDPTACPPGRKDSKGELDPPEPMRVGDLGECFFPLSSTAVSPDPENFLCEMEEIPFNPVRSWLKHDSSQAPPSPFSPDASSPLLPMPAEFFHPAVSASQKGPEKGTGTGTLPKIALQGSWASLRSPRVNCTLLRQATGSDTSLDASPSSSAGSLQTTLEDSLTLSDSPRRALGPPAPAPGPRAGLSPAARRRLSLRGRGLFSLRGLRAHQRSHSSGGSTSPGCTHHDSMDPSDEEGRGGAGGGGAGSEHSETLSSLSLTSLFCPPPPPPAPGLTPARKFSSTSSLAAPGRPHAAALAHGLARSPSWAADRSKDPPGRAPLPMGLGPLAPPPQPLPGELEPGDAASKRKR
Protocol: as §1
Whole-cell patch-clamp experiments were performed on an automated electrophysiology platform QPatch 16 X (Sophion Bioscience A/S, Ballerup, Denmark) in single-hole configuration using 16-channel planar patch chip QPlates (Sophion Bioscience A/S). The extracellular recording solution contained, in mM: TEACl 157, MgCl2 0.5, CaCl2 5, and HEPES 10; pH 7.4 adjusted with TEAOH; and osmolarity 320 mOsm. The intracellular pipette solution contained, in mM: CsF 140, EGTA 1, HEPES 10, and NaCl 10; pH 7.2 adjusted with CsOH; and osmolarity 325 mOsm. […]
Data were plotted and analyzed using GraphPad Prism v7.0 (GraphPad Software Inc., San Diego, CA, USA). […]

CaV3.2 = CaV3.2 (Homo sapiens, UniProt O95180); assay: T-type calcium channel window current FLIPR assay, CaV3.2
Sequence of CaV3.2 (O95180 whole entry): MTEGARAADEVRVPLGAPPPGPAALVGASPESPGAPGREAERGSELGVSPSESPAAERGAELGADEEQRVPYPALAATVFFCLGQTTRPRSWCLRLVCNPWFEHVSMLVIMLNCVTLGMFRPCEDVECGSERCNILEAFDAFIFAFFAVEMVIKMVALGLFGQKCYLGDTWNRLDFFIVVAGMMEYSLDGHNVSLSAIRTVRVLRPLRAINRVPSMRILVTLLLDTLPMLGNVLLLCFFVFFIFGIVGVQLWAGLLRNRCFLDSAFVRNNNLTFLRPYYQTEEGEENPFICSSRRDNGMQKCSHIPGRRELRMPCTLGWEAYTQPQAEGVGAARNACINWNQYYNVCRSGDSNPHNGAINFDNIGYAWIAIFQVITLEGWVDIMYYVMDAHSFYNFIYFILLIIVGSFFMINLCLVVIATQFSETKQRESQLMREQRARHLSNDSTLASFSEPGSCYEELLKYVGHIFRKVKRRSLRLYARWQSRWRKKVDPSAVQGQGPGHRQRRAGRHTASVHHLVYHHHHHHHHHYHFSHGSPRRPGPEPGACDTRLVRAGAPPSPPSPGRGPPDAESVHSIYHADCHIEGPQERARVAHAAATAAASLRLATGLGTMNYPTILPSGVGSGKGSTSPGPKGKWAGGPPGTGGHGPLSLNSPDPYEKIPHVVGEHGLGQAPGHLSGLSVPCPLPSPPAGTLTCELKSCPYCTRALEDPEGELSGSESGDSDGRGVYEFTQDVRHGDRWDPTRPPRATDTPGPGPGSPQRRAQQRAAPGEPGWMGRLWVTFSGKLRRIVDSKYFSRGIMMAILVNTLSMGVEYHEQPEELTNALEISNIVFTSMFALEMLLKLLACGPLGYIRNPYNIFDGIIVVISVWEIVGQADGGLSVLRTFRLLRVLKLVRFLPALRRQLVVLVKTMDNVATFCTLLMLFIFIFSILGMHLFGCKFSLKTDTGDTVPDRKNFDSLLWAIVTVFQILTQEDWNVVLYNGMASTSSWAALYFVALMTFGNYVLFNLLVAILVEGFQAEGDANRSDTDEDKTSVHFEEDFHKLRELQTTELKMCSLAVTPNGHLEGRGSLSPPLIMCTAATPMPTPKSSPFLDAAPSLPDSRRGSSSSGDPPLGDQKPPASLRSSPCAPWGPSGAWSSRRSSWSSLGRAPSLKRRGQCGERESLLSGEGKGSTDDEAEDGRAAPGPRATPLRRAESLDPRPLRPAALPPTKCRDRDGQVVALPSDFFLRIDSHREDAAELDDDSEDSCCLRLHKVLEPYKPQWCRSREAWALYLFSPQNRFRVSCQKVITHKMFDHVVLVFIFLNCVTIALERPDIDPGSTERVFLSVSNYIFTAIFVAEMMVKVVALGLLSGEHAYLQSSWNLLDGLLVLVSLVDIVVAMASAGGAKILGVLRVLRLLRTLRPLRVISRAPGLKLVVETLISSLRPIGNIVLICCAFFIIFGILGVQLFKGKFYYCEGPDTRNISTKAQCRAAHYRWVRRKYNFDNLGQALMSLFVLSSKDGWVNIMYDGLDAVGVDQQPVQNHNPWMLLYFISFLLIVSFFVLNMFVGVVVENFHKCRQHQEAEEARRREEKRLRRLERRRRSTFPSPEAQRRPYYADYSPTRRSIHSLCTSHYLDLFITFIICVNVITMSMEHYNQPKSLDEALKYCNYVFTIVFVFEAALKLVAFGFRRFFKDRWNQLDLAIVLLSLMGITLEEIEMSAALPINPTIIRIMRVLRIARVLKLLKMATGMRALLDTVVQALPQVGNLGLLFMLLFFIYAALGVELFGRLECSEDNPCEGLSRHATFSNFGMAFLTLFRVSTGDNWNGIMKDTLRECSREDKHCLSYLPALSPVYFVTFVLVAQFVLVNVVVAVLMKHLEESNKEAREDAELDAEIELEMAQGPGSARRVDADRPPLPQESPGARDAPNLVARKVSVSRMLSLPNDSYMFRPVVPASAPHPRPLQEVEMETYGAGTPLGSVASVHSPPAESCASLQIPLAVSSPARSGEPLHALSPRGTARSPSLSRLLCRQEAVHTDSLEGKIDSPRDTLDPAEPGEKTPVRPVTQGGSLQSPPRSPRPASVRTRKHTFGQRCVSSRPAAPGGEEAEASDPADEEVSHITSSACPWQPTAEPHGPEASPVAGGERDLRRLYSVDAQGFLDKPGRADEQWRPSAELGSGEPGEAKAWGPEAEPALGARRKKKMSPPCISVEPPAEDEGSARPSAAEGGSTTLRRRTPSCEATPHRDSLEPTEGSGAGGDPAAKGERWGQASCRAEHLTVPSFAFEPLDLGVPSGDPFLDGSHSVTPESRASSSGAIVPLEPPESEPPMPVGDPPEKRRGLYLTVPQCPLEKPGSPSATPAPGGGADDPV
Protocol: as §1, §2, §3

Sequence of CaV3.3 (Q9P0X4 whole entry): as the sequence (Q9P0X4 whole entry) above

IC50 (CaV3.3; FLIPR window current assay, HEK 293 stable, N = 3, mean ± SEM, read-out: IC50 CaV3.3 (LVA CaVs)): 3.81 ± 1.08 µM
IC50 (CaV3.3; FLIPR, representative curve, n = 4, read-out: IC50 of the representative concentration-response curve, CaV3.3 window current): 3.05 µM
Potency at CaV3.3 window current relative to potency at HVA CaVs (CaV3.3; FLIPR, CaV3.3 better than HVA CaVs): > 8 fold
Emax ([1]; QPatch whole-cell, full inhibition, read-out: Emax value, inhibition of CaV3.3 whole-cell current): ≥ 95%
inhibition at 0.2 µM ([1]; QPatch, 200 nM compound, read-out: Inhibition of the CaV3.3 peak current): < 10%
IC50 ([1]; QPatch, 200 ms steps to Vmax (−10 mV) from holding −90 mV, n = 5, mean ± SEM, read-out: IC50 CaV3.3 whole-cell current): 15.8 ± 2.28 µM
Voltage-dependence of steady-state inactivation of CaV3.3, in words ([1]; QPatch, in the presence of compound): not significantly shifted
Kind of block of the CaV3.2 window current, in words (CaV3.2; FLIPR): potent partial blocking
IC50 (CaV3.2; FLIPR window current assay, HEK 293 stable, N = 3, mean ± SEM, read-out: IC50 CaV3.2 (LVA CaVs)): 6.59 ± 0.66 µM
Emax (CaV3.2; FLIPR, n = 3, read-out: Emax, inhibition for CaV3.2): 56.9%
IC50 (CaV3.2; FLIPR, representative curve, n = 4, read-out: IC50 of the representative concentration-response curve, CaV3.2 window current): 5.77 µM
Compound: COC(=O)[C@H](Cc1c[nH]c2ccccc12)NC(=O)C(C)(c1c[nH]c2ccccc12)c1c[nH]c2ccccc12 [Compound 3, Methyl (2,2-di(1H-indol-3-yl)propanoyl)-L-tryptophanate]
